Results reported in patent US20060173069A1, “Therapeutic agent for hyperpotassemia and bone disease” (RIKEN, priority 2003, published 2006).

What was measured:
[1] = system: bone resorption due to parathyroid hormone (PTH); test: Serum calcium in TPTX rats with hypercalcemia by continuous PTH infusion; format: in vivo, SD rats; details: for increase in the level of serum calcium due to PTH: 80 mg/kg, TPTX SD rats, administered 12 hours after start of PTH, followed 24 hours; for duration of inhibitory action on bone resorption: comparison of calcitonin with reveromycin A derivatives
Protocol: The bone resorption inhibitory effects of the reveromycin A derivatives were examined by measuring the level of serum calcium released in the blood by the action of bone resorption. SD rats were subjected to an operation of extracting the thyroid glands and the parathyroid glands (TPTX). Next day, a decrease in serum calcium was confirmed and then the continuous infusion of the parathyroid hormone (PTH) was carried out, thereby creating rats each having hypercalcemia by accelerating the bone resorption.
At 12 hours from the initiation of PTH injection, the reveromycin A derivatives ([…]) or a sodium salt thereof ([…]) were administered and the level of serum calcium was then measured in time-course for 24 hours.

mature osteoclasts = test: Cell-death (apoptosis) inducing activity on mature osteoclasts, number of TRAP-stained multinuclear cells; format: cell-based, mouse; details: for EC50: Mus musculus, Osteoclast, RAW264-derived mature osteoclasts, 24 hours incubation, TRAP staining, read-out: ED50 level of cell-death inducing activity to mature osteoclasts, Number of cells; for selective apoptosis inducing effect on the mature osteoclasts: in words
Protocol: Using 29 different reveromycin A derivatives synthesized as described above, the cell-death inducing activities on the mature osteoclasts and undifferentiated macrophage-like cells derived from a mouse (RAW264 cells) were examined, respectively. The RAW264 cells, a mouse-macrophage cell line, were suspended in a 10% FBS-αMEM (manufactured by Gibco BRL Co., Ltd.) and then 12,000 cells/100 μl were inoculated in a 96-well plate. After 1-hour incubation, 100 μl of a culture medium containing RANKL ([…]) and PD98059 (40 μM) were added (final concentration: RANKL […] and PD98059 20 μM) and then incubated for 4 days to allow the differentiation of the cells to mature osteoclasts (J. Biol. Chem. Vol. 277, pp. 47366-47372 (2002)). Furthermore, on the second day of the culture, the half of the culture medium was replaced with new one. From each well of the plate where the cells were differentiated to the mature osteoclasts, 100 μl/well of the culture medium was removed. […] The apoptosis inducing activity was confirmed by the observation of agglutination of nuclei stained with 10 μM Hoechst 33258 for 10-minututes.

[2] = system: anterior limb long bone, bone resorption induced by PTH, IL-1 or vitamin D3; test: Inhibition of 45Ca liberation (bone resorption activity) from cultured fetal long bone; format: cell-based, rat; details: 72 hours culture; for inhibition of bone resorption induced by the PTH: 10^−8M, 10^−7M and 10^−6M, PTH 10^−8M; for inhibition of bone resorption due to vitamin D3 or IL-1: IL-1 0.3 ng/ml, vitamin D3 10^−8M
Protocol: The effects of the reveromycin A derivatives on the facilitation of the bone resorption due to the parathyroid hormone (PTH) were measured.
A19-day pregnant rat was subjected to the hypodermic injection of [^45Ca]CaCl2 to label a fetal bone. After 24 hours, the anterior limb long bone was extracted. For an anterior limb long bone, a Dulbecco-modified Eagle medium (DMEM) containing 15% heat-inactivated horse serum and 100 U/ml penicillin was used as a culture medium and then incubated for 72 hours together with a bone resorption factor (PTH 10^−8M, IL-1 0.3 ng/ml, vitamin D3 10^−8M) and the reveromycin A derivatives. After incubation, ^45Ca radioactivities in a solution into which calcium of the bone was eluted by 0.1 N HCl and in the culture solution were measured using a liquid scintillation counter. The ratio of the amount of calcium released into the culture solution to the total amount of calcium (bone resorption activity (%)) was used as an indicator and the effects of the reveromycin A derivatives on the facilitation of the bone resorption due to the PTH was investigated. • Bone resorption activity (%)=100×Amount of ^45Ca released into culture solution/(Amount of ^45Ca released into culture solution+Amount of ^45Ca left in bone)

[3] = system: undifferentiated RAW264 cells; test: Cell-death inducing activity on undifferentiated RAW264 cells, MTT method; format: cell-based, mouse; details: for CC50: Mus musculus, RAW264.7, 24 hours incubation, MTT, read-out: ED50 level of cell-death inducing activity to undifferentiated RAW264 cells, MTT; for growth inhibitory action on the osteoclast precursor cells RAW264: even at a comparatively high concentration
Protocol: The cell-death inducing activities to the undifferentiated RAW264 cells were investigated by the MTT method (J. Immunol. Methods, Vol. 65, pp 55-63 (1983). The RAW 264 cells were plated on a 96-well plate at a density of 40,000 cells/100 μl and then incubated for 24 hours. After the 24-hour incubation, 50 μl of a culture medium containing a three-fold concentration of the drug was added and then incubated for 24 hours to investigate the cell-death inducing activity. Two hours before the measurement of the cell-death inducing activity, 15 μl of 0.5% MTT-PBS (phosphate buffer saline) was added and incubated. After that, the residue from which the culture solution was removed was dissolved in 100 μl of DMSO (dimethyl sulfoxide) and the absorbance at 570 nm (a reference wave length of 630 nm) was measured, followed by calculating the ED50 level of the cell-death inducing activity.

SMILES | increase in the level of serum calcium due to PTH [1] | duration of inhibitory action on bone resorption [1] | EC50 (mature osteoclasts) | selective apoptosis inducing effect on the mature osteoclasts (mature osteoclasts) | inhibition of bone resorption induced by the PTH [2] | inhibition of bone resorption due to vitamin D3 or IL-1 [2] | CC50 [3] | growth inhibitory action on the osteoclast precursor cells RAW264 [3]
CCCC[C@@]1(OC(=O)CCC(=O)O)CC[C@]2(CC[C@H](C)[C@@H](C/C=C(C)/C=C/[C@H](O[Si](C)(C)C(C)(C)C)[C@@H](C)/C=C/C(=O)O)O2)O[C@H]1/C=C/C(C)=C/C(=O)O [Compound 2, C5-silylether] | significant suppression | prolonged inhibitory action on bone resorption | 6.6 µM | showed a selective apoptosis inducing effect | inhibited the bone resorption induced by the PTH at 10^−8M, 10^−7M, and 10^−6M, in a concentration-dependent manner | could be also inhibited | 89 µM | do not show any growth inhibitory action
CCCC[C@@]1(OC(=O)CCC(=O)O)CC[C@]2(CC[C@H](C)[C@@H](C/C=C(C)/C=C/[C@H](OC(C)=O)[C@@H](C)/C=C/C(=O)O)O2)O[C@H]1/C=C/C(C)=C/C(=O)O [Compound 27, C5-acetate] | significant suppression | prolonged inhibitory action on bone resorption | 1.3 µM | showed a selective apoptosis inducing effect | inhibited the bone resorption induced by the PTH at 10^−8M, 10^−7M, and 10^−6M, in a concentration-dependent manner | could be also inhibited | 49 µM | do not show any growth inhibitory action
